Measurements as given in ChEMBL document CHEMBL1150440, “Tryptophan-norleucine 1,5-disubstituted tetrazoles as cis peptide bond mimics: Investigation of the bioactive conformation of a potent and selective peptide for the cholecystokinin-B receptor” (Bioorg Med Chem Lett, 1993).
Starred links: 1 amine or outer side, 2 acyl side, 3 side chain; linkers in the order of their positions; H or OH if unused. Non-standard residues stand in square brackets, D forms with d. Residues, ends and D or L forms follow the SMILES beside them. X1 = CCCC1C[C@@H](C(=O)[*:2])N([*:1])C1; NMeNle = CCCC[C@H](NC)C(=O)O; Nle = CCCC[C@H](N)C(=O)O

What was measured:
[1] = molecular target: T1, Gastrin/cholecystokinin type B receptor (Homo sapiens, UniProt P32239); experiment: Compound was tested for its binding affinity towards Cholecystokinin type B receptor in cortical membranes (CNS); format: cell membranes
T1 sequence (P32239 whole entry): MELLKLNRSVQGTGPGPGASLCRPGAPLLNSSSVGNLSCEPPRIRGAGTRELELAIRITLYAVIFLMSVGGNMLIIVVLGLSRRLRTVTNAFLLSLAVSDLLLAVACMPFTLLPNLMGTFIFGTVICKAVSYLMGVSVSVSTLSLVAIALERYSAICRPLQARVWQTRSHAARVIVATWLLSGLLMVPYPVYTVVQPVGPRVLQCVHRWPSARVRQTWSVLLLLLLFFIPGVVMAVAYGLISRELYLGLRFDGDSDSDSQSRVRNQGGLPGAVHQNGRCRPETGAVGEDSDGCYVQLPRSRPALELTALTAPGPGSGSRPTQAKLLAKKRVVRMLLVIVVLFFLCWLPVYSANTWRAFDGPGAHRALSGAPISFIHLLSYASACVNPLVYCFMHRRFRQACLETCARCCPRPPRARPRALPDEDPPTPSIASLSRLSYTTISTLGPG

[2] = molecular target: T2, Cholecystokinin receptor type A (Homo sapiens, UniProt P32238); experiment: Compound was tested for its binding affinity towards Cholecystokinin type A receptor in pancreatic membranes; format: cell membranes
T2 sequence (P32238 whole entry): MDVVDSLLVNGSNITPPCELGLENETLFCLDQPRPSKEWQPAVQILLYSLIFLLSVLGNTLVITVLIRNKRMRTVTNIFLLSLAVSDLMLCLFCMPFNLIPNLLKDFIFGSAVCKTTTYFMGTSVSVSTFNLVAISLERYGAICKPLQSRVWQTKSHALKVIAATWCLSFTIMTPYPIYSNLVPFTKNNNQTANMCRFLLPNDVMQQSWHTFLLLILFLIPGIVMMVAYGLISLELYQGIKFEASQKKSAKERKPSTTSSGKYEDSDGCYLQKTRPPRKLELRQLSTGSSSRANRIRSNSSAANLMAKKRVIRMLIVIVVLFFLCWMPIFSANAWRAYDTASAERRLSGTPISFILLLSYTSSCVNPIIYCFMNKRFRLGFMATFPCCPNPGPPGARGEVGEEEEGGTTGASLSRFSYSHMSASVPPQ

[3] = molecular target: T3, Cholecystokinin receptor type A (Homo sapiens) (UniProt P32238); experiment: Ratio of binding affinity of Cholecystokinin type A receptor […]
T3 sequence (whole entry): T2 sequence (P32238 whole entry)

IC50 [1]	IC50 [2]	Ratio [3]	Compound
> 10000 nM	> 10000 nM		CCCCC(C(=O)OCc1ccccc1)n1nnnc1C(Cc1cn(C(=O)OCc2ccccc2)c2ccccc12)NC(=O)OCc1ccccc1 (stereo not drawn)
4530 nM	> 10000 nM	> 1.9	CCCC[C@@H](C(=O)N[C@@H](CC(=O)O)[C@@H](Cc1ccccc1)C(N)=O)n1nnnc1[C@H](Cc1c[nH]c2ccccc12)NC(=O)CN
	> 10000 nM		CCCC[C@@H](C(=O)N[C@@H](CC(=O)O)C(=O)N[C@@H](Cc1ccccc1)C(N)=O)N(C)C(=O)[C@H](Cc1c[nH]c2ccccc12)NC(=O)CN (H-GW[NMeNle]DF-NH2)
169 nM	2180 nM	12.9	CCCC[C@H](NC(=O)[C@H](Cc1c[nH]c2ccccc12)NC(=O)CN)C(=O)N[C@@H](CC(=O)O)C(=O)N[C@@H](Cc1ccccc1)C(N)=O (H-GW[Nle]DF-NH2)
1.9 nM	2700 nM	1420	CCCC1C[C@@H](C(=O)N[C@@H](CC(=O)O)C(=O)N[C@@H](Cc2ccccc2)C(N)=O)N(C(=O)[C@H](Cc2c[nH]c3ccccc23)NC(=O)CN)C1 (stereo partly drawn) (H-GW[X1]DF-NH2)
4250 nM	364 nM	0.09	CCCC[C@@H](C(=O)N[C@@H](CC(=O)OCc1ccccc1)[C@@H](Cc1ccccc1)C(N)=O)n1nnnc1[C@H](Cc1c[nH]c2ccccc12)NC(=O)CNC(=O)OC(C)(C)C (mixture of isomers)
1880 nM	36.7 nM	0.02	CCCC[C@@H](C(=O)N[C@@H](CC(=O)OCc1ccccc1)[C@@H](Cc1ccccc1)C(N)=O)n1nnnc1[C@H](Cc1c[nH]c2ccccc12)NC(=O)OC(C)(C)C (mixture of isomers)
